Reference: ChEMBL document CHEMBL1122575, “Dependence of beta-lactamase stability on substructures within beta-lactam antibiotics” (J Med Chem, 1984)
In brackets after ≈: the same amount, converted by molar mass.

Columns and labels:
[1] = Relative hydrolysis rate (RHR) was evaluated against RTEM enzyme; type: ADME
[2] = tested on: Escherichia coli; test: Compound was evaluated for the antibacterial activity against Escherichia coli (RTEM+organism) at 10E6 colony forming units; type: functional
[3] = tested on: Escherichia coli; test: Compound was evaluated for the relative Vmax against Escherichia coli with strain 609 (beta-Lactamase-positive (LAC+)); type: ADME, organism-based
[4] = tested on: Escherichia coli; test: Compound was evaluated for the antibacterial activity against Escherichia coli with strain 609 (beta-Lactamase-positive (LAC+)); type: functional
[5] = tested on: Escherichia coli; test: Compound was evaluated for the antibacterial activity against Escherichia coli with strain NIHJ (beta-Lactamase-negative (LAC-)); type: functional
[6] = tested on: Providencia rettgeri; test: Compound was evaluated for the antibacterial activity against Providencia rettgeri with the strains beta-Lactamase-positive (LAC+); type: functional
[7] = tested on: Enterobacter cloacae; test: Compound was evaluated for the antibacterial activity against Enterobacter cloacae with the strains beta-Lactamase-positive (LAC+); type: functional
[8] = Relative hydrolysis rate (RHR) was evaluated against K1 enzyme; type: ADME
[9] = tested on: Staphylococcus aureus; test: Relative hydrolysis rate (RHR) was evaluated against Staphylococcus aureus with the strain FS108; type: ADME, organism-based
[10] = tested on: Staphylococcus aureus; test: Compound was evaluated for the antibacterial activity against Staphylococcus aureus with the strain 209P; type: functional
[11] = tested on: Escherichia coli; test: Compound was evaluated for the antibacterial activity against Escherichia coli with strain JC-S (beta-Lactamase-negative (LAC-)); type: functional
[12] = tested on: Enterobacter cloacae; test: Compound was evaluated for the antibacterial activity against Enterobacter cloacae with strain 233 (beta-Lactamase-positive (LAC+)); type: functional
[13] = tested on: Escherichia coli; test: Compound was evaluated for the antibacterial activity against Escherichia coli (RTEM+ organism).; type: functional
[14] = tested on: Staphylococcus aureus; test: Compound was evaluated for the antibacterial activity against Staphylococcus aureus with the strains beta-Lactamase-positive (LAC+)/ beta-Lactamase-negative (LAC-); 64/0.03; type: functional
[15] = Relative Vmax was reported; type: ADME
[16] = tested on: Escherichia coli; test: Compound was evaluated for the relative Vmax against Escherichia coli with strain 609 (beta-Lactamase-positive (LAC+); type: ADME, organism-based; settings: in vivo
[17] = Compound was evaluated for the relative Vmax against RTEM enzyme; type: ADME
[18] = tested on: Escherichia coli; test: Compound was evaluated for the antibacterial activity against Escherichia coli (RTEM+ organism); type: functional
[19] = tested on: Escherichia coli; test: Compound was evaluated for the antibacterial activity against Escherichia coli with strain beta-Lactamase-negative (LAC-); type: functional
[20] = tested on: Staphylococcus aureus; test: Compound was evaluated for the antibacterial activity against Staphylococcus aureus with strain beta-Lactamase-negative (LAC-); type: functional
[21] = tested on: Staphylococcus aureus; test: Relative hydrolysis rate (RHR) was evaluated against Staphylococcus aureus with strain PC1.; type: ADME, organism-based
[22] = tested on: Staphylococcus aureus; test: Compound was evaluated for the antibacterial activity against Staphylococcus aureus with strain beta-Lactamase-positive (LAC+); type: functional
[23] = tested on: Klebsiella aerogenes; test: Compound was evaluated for the antibacterial activity against Klebsiella aerogenes with strain K1+ at 10e4/10e6 colony forming units; 12.5/>100; type: functional
[24] = tested on: Escherichia coli; test: Compound was evaluated for the antibacterial activity against Escherichia coli (RTEM-organism) at 10e4/10e6 colony forming units; <0.05/0.1; type: functional
[25] = tested on: Klebsiella aerogenes; test: Compound was evaluated for the antibacterial activity against Klebsiella aerogenes with strain K1- at 10e4/10e6 colony forming units; 0.05/0.1; type: functional
[26] = tested on: Escherichia coli; test: Compound was evaluated for the antibacterial activity against Escherichia coli (RTEM+organism) at 10e4/10e6 colony forming units; 0.1/0.1; type: functional
[27] = tested on: Escherichia coli; test: Compound was evaluated for the antibacterial activity against Escherichia coli with strain NIHJ (beta-Lactamase-negative (LAC-); type: functional
[28] = tested on: Escherichia coli; test: Percentage zonal reduction was evaluated against Escherichia coli; type: functional
[29] = tested on: Staphylococcus aureus; test: Percentage zonal reduction was evaluated against Staphylococcus aureus; type: functional
[30] = tested on: Escherichia coli; test: Compound was evaluated for the antibacterial activity against Escherichia coli (RTEM-organism) at 10e4/10e6 cfu; 0.1/0.2; type: functional
[31] = tested on: Klebsiella aerogenes; test: Compound was evaluated for the antibacterial activity against Klebsiella aerogenes with strain K1+ at 10e4/10e6 cfu; 100/>100; type: functional
[32] = tested on: Escherichia coli; test: Compound was evaluated for the antibacterial activity against Escherichia coli (RTEM+organism) at 10e4/10e6 cfu; 0.4/1.6; type: functional
[33] = tested on: Klebsiella aerogenes; test: Compound was evaluated for the antibacterial activity against Klebsiella aerogenes with strain K1- at 10e4/10e6 cfu; 0.2/0.2; type: functional

Work on `CO/N=C(\C(=O)N[C@@H]1C(=O)N2C(C(=O)O)=C(COC(C)=O)CSC12)c1csc(N)n1` (some centres undefined) yielded an RHR [1] of 100 and an MIC [2] of 0.1 µg/mL (≈ 0.22 µM).

Compound `CC(O)[C@H]1C(=O)N2C(C(=O)O)=C(SCCN)SC12` (some centres undefined) has an RVmax [3] of under 0.1, an MIC [4] of 1.5 µg/mL (≈ 5.17 µM) and an MIC [5] of 0.8 µg/mL (≈ 2.76 µM).

Compound `CO/N=C(\C(=O)N[C@@H]1C(=O)N2C(C(=O)O)=C(COC(C)=O)C[S@+]([O-])C12)c1csc(N)n1` (some centres undefined) has an RHR [1] of 0 and an MIC [2] of 0.1 µg/mL (≈ 0.212 µM).

In the case of `Cn1nnnc1SCC1=C(C(=O)[O-])N2C(=O)[C@@H](NC(=O)[C@H](NC(N)=O)c3ccco3)C2SC1.[Na+]` (some centres undefined), the MIC [6] is reported as 12.5 µg/mL and the MIC [7] is reported as 25 µg/mL.

In the case of `CC(=O)OCC1=C(C(=O)O)N2C(=O)[C@@H](NC(=O)/C(=N\OCC(=O)O)c3csc(N)n3)C2SC1` (some centres undefined), the RHR [1] is reported as 2111 and the RHR [8] is reported as 101.

For `CC1(C)SC2[C@@H](NC(=O)Cc3ccccc3)C(=O)N2C1C(=O)O` (some centres undefined), the RHR [9] was 2.2 and the MIC [10] was 1.6 µg/mL (≈ 4.78 µM).

`Cn1nnnc1SCC1=C(C(=O)O)N2C(=O)[C@@H](NC(=O)Cc3csc(N)n3)C2SC1` (some centres undefined) gave an MIC [7] of over 100 µg/mL.

Work on `CO[C@@]1(NC(=O)C(C(=O)O)c2ccc(O)cc2)C(=O)N2C(C(=O)O)=C(CSc3nnnn3C)COC21` (some centres undefined) yielded an MIC [11] of 0.2 µg/mL (≈ 0.384 µM), an MIC [12] of 0.2 µg/mL (≈ 0.384 µM) and an MIC [13] of 0.4 µg/mL (≈ 0.769 µM).

Compound `CO/N=C(/C(=O)N[C@@H]1C(=O)N2C(C(=O)O)=C(CSc3nnnn3C)CSC12)c1csc(N)n1` (some centres undefined) has an MIC [7] of 1.6 µg/mL (≈ 3.13 µM).

Work on `CC1(C)S[C@@H]2[C@H](NC(=O)Cc3ccccc3)C(=O)N2[C@H]1C(=O)O` [PENICILLIN G] yielded an RHR [9] of 100, an MIC [14] of 64 µg/mL (≈ 191 µM) and an RVmax [15] of 1. It also gave an MIC [10] of 0.065 µg/mL (≈ 0.194 µM).

Compound `NCCSC1=C(C(=O)O)N2C(=O)[C@@H](CO)C2S1` (some centres undefined) has an RVmax [3] of 10, an MIC [4] of 25 µg/mL (≈ 90.5 µM) and an MIC [5] of 3.1 µg/mL (≈ 11.2 µM).

With `O=C(Cc1cccs1)N[C@@H]1C(=O)N2C(C(=O)[O-])=C(C[n+]3ccccc3)CS[C@H]12` [CEPHALORIDINE] the RHR [1] was 100, the RHR [8] was 100 and the RVmax [16] was 100. The RVmax [17] was 100.

`Cn1nnnc1SCC1=C(C(=O)O)N2C(=O)[C@@H](NC(=O)C(C(=O)O)c3ccc(O)cc3)C2OC1` (some centres undefined) showed an MIC [11] of 0.2 µg/mL (≈ 0.408 µM), an MIC [12] of 0.4 µg/mL (≈ 0.816 µM) and an MIC [13] of 50 µg/mL (≈ 102 µM).

In the case of `CC(=O)NCCSC1=C(C(=O)O)N2C(=O)[C@H]([C@@H](C)O)C2C1` (some centres undefined), the MIC [18] is reported as 6.2 µg/mL (≈ 19.7 µM) and the MIC [19] is reported as 6.2 µg/mL (≈ 19.7 µM).

With `O=C(CSc1cc(Cl)nc(Cl)c1)N[C@H]1CN(OS(=O)(=O)[O-])C1=O.[K+]` the MIC [20] was 0.1 µg/mL, the RHR [21] was under 0.5 and the MIC [22] was 0.2 µg/mL.

Compound `CO/N=C(/C(=O)N[C@@H]1C(=O)N(S(=O)(=O)[O-])[C@@H]1C)c1csc(N)n1.[K+]` has an MIC [23] of 12.5 µg/mL, an RHR [1] of 0.3 and an RHR [8] of 6.4. The MIC [24] was under 0.05 µg/mL, the MIC [25] was 0.05 µg/mL and the MIC [26] was 0.1 µg/mL.

With `CCCO[C@@]1(NC(=O)CSCC#N)C(=O)N2C(C(=O)O)=C(CSc3nnnn3C)CSC21` (some centres undefined) the MIC [13] was 200 µg/mL (≈ 400 µM) and the MIC [27] was over 200 µg/mL.

For `CC(=O)NCCSC1=C(C(=O)O)N2C(=O)[C@@H](C(C)O)C2C1` (some centres undefined), the MIC [18] was 25 µg/mL (≈ 79.5 µM) and the MIC [19] was 0.2 µg/mL (≈ 0.636 µM).

Work on `CC1=C(C(=O)O)N2C(=O)[C@@H](NC(=O)[C@H](N)c3ccccc3)[C@H]2SC1` [CEPHALEXIN ANHYDROUS] yielded a Zone reduction [28] of 27% and a Zone reduction [29] of 48%.

Work on `CO/N=C(/C(=O)N[C@@H]1C(=O)N(S(=O)(=O)[O-])[C@H]1C)c1csc(N)n1.[K+]` yielded an RHR [1] of 1, an RHR [8] of 20 and an MIC [30] of 0.1 µg/mL. The MIC [31] was 100 µg/mL, the MIC [32] was 0.4 µg/mL and the MIC [33] was 0.2 µg/mL.

Work on `Cn1nnnc1SCC1=C(C(=O)O)N2C(=O)[C@@H](NC(=O)CSCC#N)C2SC1` (some centres undefined) yielded an MIC [13] of 12.5 µg/mL (≈ 28.3 µM) and an MIC [27] of 0.8 µg/mL (≈ 1.81 µM).

Work on `CC(=O)OCC1=C(C(=O)O)N2C(=O)[C@@H](NC(=O)/C(=N/OCC(=O)O)c3csc(N)n3)C2SC1` (some centres undefined) yielded an RHR [1] of under 0.1 and an RHR [8] of 3.
